Test results from patent publication US11123398B2, “Chemotherapeutic combinations of cationic antimicrobial peptides and chemotherapeutics” (LYTIX BIOPHARMA AS, priority 2014, dated 2021).
Non-standard residues stand in square brackets, D forms with d. Residues, ends and D or L forms follow the SMILES beside them. Dip = N[C@H](C(=O)O)C(c1ccccc1)c1ccccc1

Tests used:
SK-OV-3 cell line = type: cell-based, human; conditions: 4 h
Method: (§1) Tumor cells were plated in 96-well flat-bottom microtitration plates (Nunc, Dutscher, Brumath, France) and incubated at 37° C. for 24 hours before treatment in 190 μl of drug-free culture medium supplemented or not with 10% FBS for adherent or suspension growing cell lines, respectively.
(§2) The adherent cell lines were washed once with 200 μl FBS-free culture medium before treatment. Tumor cells were incubated for 4 hours with 10 concentrations of compounds in ¼ dilution step with a top dose of 400 μM (range 4×10^−4 to 4×10^−10 M), with 1% (final concentration) Triton X-100 as positive control and FBS-free culture medium as negative control. The cells (190 μl) were incubated in a 200 μl final volume of FBS-free culture medium containing test substances at 37° C. under 5% CO2.
(§3) Three independent experiments were performed, each concentration being tested in quadruplicate. Control cells were treated with vehicle alone. At the end of treatments, the cytotoxic activity was evaluated by a MTS assay (see § 3.3.).
(§4) Like MTT, MTS is bioreduced by cells into a formazan product that is directly soluble in culture medium without processing, unlike MTT.
(§5) At the end of the cells treatment, 40 μl of a 0.22 μm filtered freshly combined solution of MTS (20 ml at 2 mg/ml, Ref G1111, Batch 235897, Exp March 2009, Promega, Charbonnières, France) and PMS (1 ml at 0.92 mg/ml, Ref P9625, Batch 065K0961, Sigma) in Dulbecco's Phosphate Buffered Saline (DPBS, Ref 17-513Q, Batch 6MB0152, Cambrex), were added in each well. Culture plates were incubated for 2 h at 37° C. Absorbency (OD) were measured at 490 nm in each well using VICTOR^3™ 1420 multilabeled counter (Wallac, PerkinElmer, Courtaboeuf, France).
(§6) IC50: drug concentration to obtain a 50% inhibition of cell proliferation.
(§7) The dose-response curves were plotted using XLFit 3 (IDBS, United Kingdom). The IC50 determination values were calculated using the XLFit 3 software from semi-log curves. Individual IC50 determination values as well as mean and SD values were generated.

HL-60 = type: cell-based, human; conditions: 24 h
Method: as §1
as §2, with “Tumor cells were incubated for 4 hours with 10 concentrations of compounds in ¼ dilution step with a” left out
as §3, §4, §5, §6, §7

[1] = tested on: HUV-EC-C normal cell line; type: cell-based, human; conditions: 24 h
Method: as §1
as §2, with “Tumor cells were incubated for 4 hours with 10 concentrations of compounds in ¼ dilution step with a” left out
as §3, §4, §5, §6, §7

IGROV-1 = type: cell-based, human; conditions: 24 h
Method: as §1
as §2, with “Tumor cells were incubated for 4 hours with 10 concentrations of compounds in ¼ dilution step with a” left out
as §3, §4, §5, §6, §7

K-562 = type: cell-based, human; conditions: 24 h
Method: as §1
as §2, with “Tumor cells were incubated for 4 hours with 10 concentrations of compounds in ¼ dilution step with a” left out
as §3, §4, §5, §6, §7

MCF-7 = type: cell-based, human; conditions: 24 h
Method: as §1
as §2, with “Tumor cells were incubated for 4 hours with 10 concentrations of compounds in ¼ dilution step with a” left out
as §3, §4, §5, §6, §7

Raji cell line = type: cell-based, human; conditions: 4 h
Method: (§8) Tumor cells were plated in 96-well flat-bottom microtitration plates (Nunc, Dutscher, Brumath, France) and incubated at 37° C. for 24 hours before treatment in 190 μl of drug-free and FBS-free culture medium.
as §2, with “Tumor” for “The adherent cell lines were washed once with 200 μl FBS-free culture medium before treatment. Tumor”, “[…]” for “4×10^−10”
(§9) Three independent experiments were performed, each concentration being issued from quadruplicate. Control cells were treated with vehicle alone. At the end of treatments, the cytotoxic activity was evaluated by a MTS assay (see § 3.3 below).
as §4, §5
(§10) 4.1. IC50 Data was Determined as in Example 1

U-937 cell line = type: cell-based, human; conditions: 4 h
Method: as §8
as §2, with “Tumor” for “The adherent cell lines were washed once with 200 μl FBS-free culture medium before treatment. Tumor”, “[…]” for “4×10^−10”
as §9, §4, §5, §10

human red blood cells = assay: Haemolytic activity in vitro; type: cell-based; conditions: for Mean cell death (%): 1 h 37° C., 1% RBC
Method: Freshly collected human blood was centrifuged at 1500 rpm for 10 minutes in order to isolate the red blood cells. The red blood cells (RBC) were washed three times with PBS [35 mM phosphate buffer with 150 mM NaCl, pH 7.4] by centrifugation at 1500 rpm for 10 minutes, and adjusted to 10% haematocrit with PBS. LTX-315 solutions were added to give a final concentration range of the peptide from 1200 μg/ml to 1 μg/ml and an RBC concentration of 1%. The resulting suspension was incubated with agitation for one hour at 37° C. After incubation the suspension was centrifuged at 4000 rpm for 5 minutes, and the released haemoglobin were monitored by measuring the absorbance of the supernatant at 405 nm. PBS was used as negative control and assumed to cause no haemolysis. 0.1% Triton was used as positive control and assumed to cause complete haemolysis.
Released haemoglobin was monitored by measuring the absorbance of the supernatant at 405 nm, and percent haemolysis was calculated by the equation: % Haemolysis=[(A405 LTX-315−A405 PBS)/(A405 0.1% Triton X-100−A405 PBS)]×100
LTX-315 concentration corresponding to 50% haemolysis (EC50) was determined from a dose-response curve.

A375 cells = assay: Bright field confocal live cell imaging; type: cell-based, human; conditions: LTX-315 at IC-50 value, majority of the cells
Method: A375 cells were seeded at 10,000 cells/well in a complete media in Nunc Lab-Tec 8-wells chambered covered glass (Sigma) precoated with 25 μg/ml human fibronectin (Sigma) that were allowed to adhere overnight. Cells were washed twice with a serum-free RPMI, treated with peptide dissolved in RPMI and investigated using Bright on a Leica TCS SP5 confocal microscope, with a 63×/1.2 W objective. The microscope was equipped with an incubation chamber with CO2 and temperature control.

Q: How did the IC50 (SK-OV-3 cell line) turn out when `NCCCC[C@H](NC(=O)[C@@H](NC(=O)[C@H](Cc1c[nH]c2ccccc12)NC(=O)[C@H](CCCCN)NC(=O)[C@H](CCCCN)NC(=O)[C@H](Cc1c[nH]c2ccccc12)NC(=O)[C@H](Cc1c[nH]c2ccccc12)NC(=O)[C@H](CCCCN)NC(=O)[C@@H](N)CCCCN)C(c1ccccc1)c1ccccc1)C(N)=O` [LTX-315, K-K-W-W-K-K-W-Dip-K-NH2] (H-KKWWKKW[Dip]K-NH2) was run?
A: 7.16 ± 0.99 µM

Q: And the IC50 (HL-60)?
A: 2.07 µM

Q: And the IC50 [1]?
A: 23 µM

Q: And the IC50 (IGROV-1)?
A: 6.37 µM

Q: And the IC50 (K-562)?
A: 3.27 µM

Q: What about the IC50 (MCF-7) of the same molecule?
A: 1.94 µM

Q: What about the IC50 (Raji cell line) of the same molecule?
A: 4.93 ± 1.03 µM

Q: What about the IC50 (U-937 cell line) of the same molecule?
A: 1.15 ± 0.42 µM

Q: And the “Mean cell death (%)” value (human red blood cells; LTX-315 1 μg/ml)?
A: 0.0%

Q: And the “Mean cell death (%)” value (human red blood cells; LTX-315 10 μg/ml)?
A: 0.6%

Q: And the “Mean cell death (%)” value (human red blood cells; LTX-315 50 μg/ml)?
A: 1.6%

Q: What about the “Mean cell death (%)” value (human red blood cells; LTX-315 100 μg/ml) of the same molecule?
A: 3.6%

Q: And the “Mean cell death (%)” value (human red blood cells; LTX-315 500 μg/ml)?
A: 20.4%

Q: What about the “Mean cell death (%)” value (human red blood cells; LTX-315 1000 μg/ml) of the same molecule?
A: 38.2%

Q: What about the “Mean cell death (%)” value (human red blood cells; LTX-315 1200 μg/ml) of the same molecule?
A: 37.7%

Q: And the “Mean EC50 (50% haemolysis)” value (human red blood cells; human red blood cells)?
A: greater than 1200 μg/ml

Q: What about the EC50 (human red blood cells; human red blood cells, read-out: Mean EC50 (50% haemolysis)) of the same molecule?
A: > 833 µM

Q: What about the IC50 (human red blood cells; red cells of human) of the same molecule?
A: ≥ 833 µM

Q: What about the “Time to rounding up and total collapse of the cells” value (A375 cells) of the same molecule?
A: 15 to 60 min
